# Measurements taken from publication PMC10154249, “Unique progerin C-terminal peptide ameliorates Hutchinson–Gilford progeria syndrome phenotype by rescuing BUBR1” (Nature Aging, 2023).
# Legend:
# [1] = test system: BUBR1 promoter; assay: Luciferase assay of BUBR1 promoter in HEK-293T cells; format: cell-based; details: for Relative luciferase activity of BUBR1 promoter (UPCP/Mock): Fig. 4b, HEK293T, Mock = 1, P=0.684
# Procedure: The experiments were performed as described previously. The BUBR1 (–1,200 to +100) promoter or the DNA fragment of BUBR1 mRNA 3′-UTR was inserted into the pGL4.20 vector. Cells were plated in 24-well plates. After 24 h, cells were cotransfected with 200 ng of the indicated firefly luciferase reporter plasmid and 50 ng of Renilla luciferase normalization control plasmid using PEI. At 48 h after transfection, cell lysates were collected to measure luciferase activity using the Dual-Luciferase Reporter Assay System (Promega, catalog no. E1910) according to the manufacturer’s instructions. Luciferase reporter assay was carried out on an TD-20/20 Turner Designs luminometer, data were analyzed and further processed in Microsoft Excel and GraphPad Prism v.7.
# [2] = test system: lamin B1, p21 and IL-6 in skin of Lmna^G609G/G609G mice; assay: IHC of lamin B1, p21 and IL-6 in skin of Lmna^G609G/G609G mice; format: in vivo, mouse; details: for p21 positive cells / IL-6 positive cells / LaminB1 positive cells: LmnaG609G/G609G+UPCP; for p21 positive cells: P=0.0003 vs LmnaG609G/G609G-Mock; for IL-6 positive cells: P=0.0012 vs LmnaG609G/G609G-Mock; for LaminB1 positive cells: P=0.0142 vs LmnaG609G/G609G-Mock
# Procedure: (§1) For UPCP injection, 14-day-old Lmna^G609G/G609G mice were injected intraperitoneally with either PBS or UPCP (20 mg kg^–1, every other day) and wild-type mice were injected with PBS. All phenotypic analyses were performed after 12 weeks of treatment with UPCP. Bodyweight and lifespan were monitored after UPCP treatment. The survival rate was analyzed by the Kaplan–Meier method. We only included mice that were of sufficient bodyweight at the start of the experiment, typically at least 80% of the average littermate weight of the same sex and genotype. All animals meeting criteria for inclusion were then divided randomly into three groups according to genotype (Lmna^+/+, Lmna^G609G/G609G-Mock and Lmna^G609G/G609G-UPCP).
# (§2) For histological analyses, mice of the indicated genotypes were perfused with PBS, then with 4% paraformaldehyde (PFA). Whole organs were incubated in 4% PFA at 4 °C for 16 h. All samples were paraffin embedded and sectioning by Servicebio. Subsequently, the tissues were deparaffinized and rehydrated before hematoxylin-eosin (HE) or Masson staining or immunohistochemistry (IHC). HE staining was performed using an HE Kit (Absin, catalog no. abs9217), and Masson staining was performed using Masson’s Trichrome Stain Kit (Absin, catalog no. abs9347) according to the manufacturer’s instructions. The thickness of the layers or the areas of fibrosis in the tissues were calculated using ImageJ software by a blinded investigator. For IHC, the sections were completed by the Servicebio. The images were acquired by a microscope (Leica DMi8) and analyzed with Leica Application Suite X v.3.6.0.24 (Leica). For BubR1, cytoplasmic staining in cells was scored on the intensity of staining and the proportion of positive cells by a blinded investigator. The intensity of the staining was graded as 0 (negative, no color), 1 (low positive, light yellow), 2 (positive, brown yellow) or 3 (high positive, brown), and the number of positive cells was graded as 0 (<5%), 1 (5–25%), 2 (25–50%), 3 (51–75%) or 4 (>75%). The final score was defined as staining number score multiplied by staining color score. For lamin B1, p21 or IL-6, the proportion of positive cells was used to quantify the expression of protein in tissues by a blinded investigator.
# [3] = test system: BUBR1 kinetochore localization in H1299 cells; assay: Immunofluorescence, abnormal localization of BUBR1 in H1299 cells; format: cell-based; details: for Relative percentage of the number of abnormal localization cells of BUBR1: Fig. 3h, H1299, progerin+UPCP, P=0.0202 vs progerin
# Procedure: Immunofluorescence was performed as described previously. Cells were plated on cover slips in 12-well plates, left overnight before the treatment. Cells were fixed in 1% formaldehyde in culture medium for 10 min at 37 °C and permeabilized with 0.2% Triton X-100 in PBS for 10 min at room temperature. Cells were washed twice in PBS and blocked for 1 h with 5% BSA in PBS and then incubated with primary antibodies at 4 °C overnight, washed three times in PBS and incubated with secondary antibodies for 1 h at room temperature. Cell nuclei were counterstained with a 500 nM concentration of 4,6-diamidino-2-phenylindole (DAPI) (Sigma). Images were acquired by a fluorescence microscope (OLYMPUS FV-1000, Carl Zeiss LSM880 or Leica DMi8) and analyzed with software NIS-Elements AR v.5.0.1 (Nikon), FLUOVIEW v.4.2b (OLYMPUS), ZEN v.2.3 SP1 (Carl Zeiss) and Leica Application Suite X v.3.6.0.24 (Leica). Cells were quantified by investigators who were blinded to the identity of the analyzed cell.
# [4] = test system: BubR1 in Lmna^G609G/G609G mice; assay: IHC of BubR1 in tissues of Lmna^G609G/G609G mice; format: in vivo, mouse; design: key to BubR1 IHC score: intensity score (0-3) × positive-cell score (0-4); range 0-12; details: 20 mg kg^–1 i.p. every other day
# Procedure: as §1, §2
# [5] = skin, 20 mg kg^–1 i.p. every other day
substance,measurement,setting,value
"H-YGRKKRRQRRRYNLRSRTVLCGTCGQPADKASASGSGAQSPQNCSIM-OH (cysteines drawn unpaired) [UPCP, unique progerin C-terminal peptide]",Relative luciferase activity of BUBR1 promoter (UPCP/Mock),[1]; replicate 1,0.9458
same,Relative luciferase activity of BUBR1 promoter (UPCP/Mock),[1]; replicate 2,1.36
same,Relative luciferase activity of BUBR1 promoter (UPCP/Mock),[1]; replicate 3,0.8889
same,luciferase activity of the BUBR1 promoter,[1]; HEK-293T cells,failed to enhance luciferase activity of the BUBR1 promoter
same,p21 positive cells,[2]; replicate 1,0.2237
same,IL-6 positive cells,[2]; replicate 1,0.4348
same,LaminB1 positive cells,[2]; replicate 1,0.5254
same,p21 positive cells,[2]; replicate 2,0.3636
same,IL-6 positive cells,[2]; replicate 2,0.5192
same,LaminB1 positive cells,[2]; replicate 2,0.7647
same,p21 positive cells,[2]; replicate 3,0.2043
same,IL-6 positive cells,[2]; replicate 3,0.5517
same,LaminB1 positive cells,[2]; replicate 3,0.3729
same,p21 positive cells,[2]; replicate 4,0.2308
same,IL-6 positive cells,[2]; replicate 4,0.5702
same,LaminB1 positive cells,[2]; replicate 4,0.6429
same,p21 positive cells,[2]; replicate 5,0.3175
same,IL-6 positive cells,[2]; replicate 5,0.5897
same,LaminB1 positive cells,[2]; replicate 5,0.6739
same,p21 positive cells,[2]; replicate 6,0.1875
same,IL-6 positive cells,[2]; replicate 6,0.375
same,LaminB1 positive cells,[2]; replicate 6,0.598
same,number of lamin B1 positive cells,[2]; [5],increase the number of lamin B1 positive cells
same,p21 and IL-6 expression,[2]; [5],reduce p21 and IL-6 expression in the skin
same,Relative percentage of the number of abnormal localization cells of BUBR1,[3]; replicate 1,25%
same,Relative percentage of the number of abnormal localization cells of BUBR1,[3]; replicate 2,18%
same,Relative percentage of the number of abnormal localization cells of BUBR1,[3]; replicate 3,27%
same,BUBR1 localization to the kinetochore,"[3]; H1299 cells, immunofluorescence",correctly localized BUBR1 to the kinetochore
same,BubR1 IHC score,"[4]; aorta, No. 1",7
same,BubR1 IHC score,"[4]; aorta, No. 2",8.4
same,BubR1 IHC score,"[4]; aorta, No. 3",12
same,BubR1 IHC score,"[4]; aorta, No. 4",8.6
same,BubR1 IHC score,"[4]; aorta, No. 5",8
same,BubR1 IHC score,"[4]; aorta, No. 6",6
same,BubR1 IHC score,"[4]; lung, No. 1",1
same,BubR1 IHC score,"[4]; lung, No. 2",2
same,BubR1 IHC score,"[4]; lung, No. 3",2.4
same,BubR1 IHC score,"[4]; lung, No. 4",1.2
same,BubR1 IHC score,"[4]; lung, No. 5",1.4
same,BubR1 IHC score,"[4]; lung, No. 6",1.2
same,BubR1 IHC score,"[4]; skin, No. 1",10.4
same,BubR1 IHC score,"[4]; skin, No. 2",8
same,BubR1 IHC score,"[4]; skin, No. 3",5.6
same,BubR1 IHC score,"[4]; skin, No. 4",7.2
same,BubR1 IHC score,"[4]; skin, No. 5",12
same,BubR1 IHC score,"[4]; skin, No. 6",12
same,BubR1 expression,"[4]; skin, esophagus, lung and spleen",increased the expression of BubR1
same,BubR1 IHC score,"[4]; spleen, No. 1",7.6
same,BubR1 IHC score,"[4]; spleen, No. 2",6.8
same,BubR1 IHC score,"[4]; spleen, No. 3",6
same,BubR1 IHC score,"[4]; spleen, No. 4",7.8
same,BubR1 IHC score,"[4]; spleen, No. 5",7.6
same,BubR1 IHC score,"[4]; spleen, No. 6",7.2
